US20240261422A1, “ANTHRACYCLINE ANTIBODY CONJUGATES” (SEAGEN INC., priority 2021, published 2024)
Like-named read-outs stand apart in the source and are kept apart here.

Assays:
[1] = system: L540cy, HL; assay: In vitro growth inhibition (CellTiter-Glo, 96 h), L540cy; assay type: cell-based; conditions: for IC50: anthracycline free drugs, 96 h, read-out: IC50 (nM) L540cy, HL; for IC50 (ng/mL) L540cy, HL: cOKT9 ADCs, average DAR 8, 96 h
Procedure: (§1) Cell culture of cell lines as listed in Table 2-4 in log-phase growth were seeded in 96-well plates and grown for 24 h in cell culture media containing 150 μL RPMI 1640 supplemented with 20% FBS (see Mol. Cancer Ther., 2016, 15(5), 938-945 and Mol. Cancer Ther., 2018, 17(8), 1752-1760). Serial dilutions of free drugs or antibody-drug conjugates (final concentration between 0.004 nM and 1 μM) in cell culture media were prepared at 4× working concentrations; 50 μL of each dilution was added to the 96-well plates. Following addition of the drug or ADC, the cells were incubated with test articles (free drugs or ADCs) for 4 d at 37° C. After 96 h, growth inhibition was assessed by CellTiter-Glo® (Promega, Madison, WI) and luminescence was measured on a plate reader (brand, model).
(§2) Cells were treated for 96 hours with anthracycline analogues listed in Table 2, and then assessed for viability as described in the procedures as described above. […] ND denotes value not determined with that assay for the specified compound.
(§3) ADCs were prepared by full reduction of interchain disulfides to reveal 8-conjugatable cysteines/antibody, and subsequent alkylation with the maleimide-containing drug-linkers (Compounds 14, 18, 21, 24, 29, 32, 33, 34, and 48) according to the procedures described in Mol. Cancer Ther. 2018, 17(8). 1752-1760. Conjugates of antibody cOKT9 were prepared with anthracycline linkers. Cancer cell lines were treated with cOKT9 ADCs (average DAR of 8:1) for 96 h and then assessed for viability. […] ND denotes value not determined with that assay for the specified compound.
Anti-CD30 ADCs comprising cAC10 antibody conjugated to drug-linkers 24, 32, 29, 18, 14, and 48 with an average DAR of 4 were prepared for evaluation on a CD30-expressing lymphoma cell line panel. […] Anti-CD30 conjugates bearing the PNU linkers 24, 32, 29, 18, and 14 were active on L540cy, DEL, and Karpas299 lymphoma cell lines, and conjugate 48 was active on L540cy and DEL cell lines, with IC50s ranging from 0.2-4 ng/mL.

[2] = system: 786-O, MDR + RCC; assay: In vitro growth inhibition (CellTiter-Glo, 96 h), 786-O; assay type: cell-based; conditions: for IC50: 96 h; for IC50 (ng/mL) 786-O, MDR + RCC: cOKT9 ADCs, average DAR 8, 96 h
Procedure: as §1, §2, §3

[3] = system: BxPC3, PancCa; assay: In vitro growth inhibition (CellTiter-Glo, 96 h), BxPC3; assay type: cell-based; conditions: for IC50: anthracycline free drugs, 96 h, read-out: IC50 (nM) BxPC3, PancCa; for IC50 (ng/mL) BxPC3, PancCa: cOKT9 ADCs, average DAR 8, 96 h
Procedure: as §1, §2, §3

[4] = system: HL60, AML; assay: In vitro growth inhibition (CellTiter-Glo, 96 h), HL60; assay type: cell-based; conditions: for IC50: read-out: IC50 (nM) HL60, AML
Procedure: as §1, §2, §3

[5] = system: HL60/RV, MDR + AML; assay: In vitro growth inhibition (CellTiter-Glo, 96 h), HL60/RV; assay type: cell-based; conditions: for IC50: read-out: IC50 (nM) HL60/RV, MDR + AML
Procedure: as §1, §2, §3

[6] = system: L540cy, 786-O, BxPC3, HL60, HL60/RV; conditions: for change of potency relative to the parent compound: comparison in words
[7] = Homo sapiens, 786-0, anthracycline free drugs, read-out: IC50 (nM) 786-O, MDR + RCC
[8] = cOKT9 ADCs, average DAR 8, 96 h

SMILES	IC50 ([1]; L540cy)	IC50 [2, 7]	IC50 ([3]; Homo sapiens, BXPC-3)	change of potency relative to the parent compound ([6]; free drugs)	IC50 (ng/mL) L540cy, HL [1]	IC50 (ng/mL) 786-O, MDR + RCC [2]	IC50 (ng/mL) BxPC3, PancCa [3]	other results
COc1cccc2c1C(=O)c1c(O)c3c(c(O)c1C2=O)C[C@@](O)(C(=O)CO)C[C@@H]3O[C@H]1C[C@H]2[C@H](O[C@@H]3[C@@H](OC)OCCN32)[C@H](C)O1 [Compound 5, PNU-159682, reference compound]								IC50 [1]: < 10 nM; IC50 ([2]; anthracycline free drugs, read-out: IC50 (nM) 786-O, MDR + RCC): < 10 nM; IC50 ([2]; free drug, read-out: IC50 value, 786-0): < 0.004 nM; IC50 [3]: < 10 nM; IC50 ([4]; anthracycline free drugs, 96 h): < 10 nM; IC50 ([5]; anthracycline free drugs, 96 h): < 10 nM; IC50 ([6]; read-out: IC50 values on the cancer lines tested, free drugs, 96 h, value or range over the cell lines tested): ~0.01 nM
COc1cccc2c1C(=O)c1c(O)c3c(c(O)c1C2=O)C[C@@](O)(C(=O)O)C[C@@H]3O[C@H]1C[C@H](N2CCO[C@H](OC)C2)[C@H](O)[C@H](C)O1 [Compound 4, (2S,4S)-2,5,12-trihydroxy-4-(((2R,4S,5S,6S)-5-hydroxy-4-((S)-2-methoxymorpholino)-6-methyltetrahydro-2H-pyran-2-yl)oxy)-7-methoxy-6,11-dioxo-1,2,3,4,6,11-hexahydrotetracene-2-carboxylic acid]	10 to 100 nM	10 to 100 nM	10 to 100 nM	lost roughly one order of magnitude in potency				
COc1cccc2c1C(=O)c1c(O)c3c(c(O)c1C2=O)C[C@@](O)(C(=O)NCCOCCOCCOCCOCCNC(=O)CCN1C(=O)C=CC1=O)C[C@@H]3O[C@H]1C[C@H]2[C@H](O[C@@H]3[C@@H](OC)OCCN32)[C@H](C)O1 [Compound 21, (2S,4S)—N-(18-(2,5-dioxo-2,5-dihydro-1H-pyrrol-1-yl)-16-oxo-3,6,9,12-tetraoxa-15-azaoctadecyl)-2,5,12-trihydroxy-7-methoxy-4-(((1S,3R,4aS,9S,9aR,10aS)-9-methoxy-1-methyloctahydro-1H-pyrano[4′,3′:4,5]oxazolo[2,3-c][1,4]oxazin-3-yl)oxy)-6,11-dioxo-1,2,3,4,6,11-hexahydrotetracene-2-carboxamide]					A (IC50<10 ng/mL)	A (IC50<10 ng/mL)	A (IC50<10 ng/mL)	IC50 (ng/mL) HL60, AML [4, 8]: C (100 ng/mL≤IC50<1000 ng/mL); IC50 (ng/mL) HL60/RV, MDR + AML [5, 8]: D (IC50≥1000 ng/mL); IC50s of cOKT9 conjugates ([6]; 24 h): 1 to 150 ng/mL
COc1cccc2c1C(=O)c1c(O)c3c(c(O)c1C2=O)C[C@@](O)(C(=O)NCCN)C[C@@H]3O[C@H]1C[C@H]2[C@H](O[C@@H]3[C@@H](OC)OCCN32)[C@H](C)O1 [Compound 9, (2S,4S)—N-(2-aminoethyl)-2,5,12-trihydroxy-7-methoxy-4-(((1S,3R,4aS,9S,9aR,10aS)-9-methoxy-1-methyloctahydro-1H-pyrano[4′,3′:4,5]oxazolo[2,3-c][1,4]oxazin-3-yl)oxy)-6,11-dioxo-1,2,3,4,6,11-hexahydrotetracene-2-carboxamide]	< 10 nM	< 10 nM	< 10 nM	increased potency in 4 of 5 cell lines				IC50 ([4]; Homo sapiens, HL-60, 96 h): < 10 nM; IC50 ([5]; Homo sapiens, HL-60, 96 h): 100 to 1000 nM
COc1cccc2c1C(=O)c1c(O)c3c(c(O)c1C2=O)C[C@@](O)(C(=O)NCCNC(=O)CCN1C(=O)C=CC1=O)C[C@@H]3O[C@H]1C[C@H](N2CCO[C@H](OC)C2)[C@H](O)[C@H](C)O1 [Compound 34, (2S,4S)—N-(2-(3-(2,5-dioxo-2,5-dihydro-1H-pyrrol-1-yl)propanamido)ethyl)-2,5,12-trihydroxy-4-(((2R,4S,5S,6S)-5-hydroxy-4-((S)-2-methoxymorpholino)-6-methyltetrahydro-2H-pyran-2-yl)oxy)-7-methoxy-6,11-dioxo-1,2,3,4,6,11-hexahydrotetracene-2-carboxamide]					D (IC50≥1000 ng/mL)	D (IC50≥1000 ng/mL)	D (IC50≥1000 ng/mL)	activity of cOKT9 conjugates across the panel of cancer cell lines ([6]; cOKT9 ADCs DAR 8, result in words): inactive
